For 34 molecules, IC50 results are on record in patent US8691804B2 (Evotec AG, priority 2008, dated 2014).

Some results are limits rather than exact numbers.

This experiment deals with T1, human H3 receptors (Homo sapiens, UniProt Q9Y5N1).
T1 construct: host or cells: CHO-K1
T1 sequence (Q9Y5N1 whole entry): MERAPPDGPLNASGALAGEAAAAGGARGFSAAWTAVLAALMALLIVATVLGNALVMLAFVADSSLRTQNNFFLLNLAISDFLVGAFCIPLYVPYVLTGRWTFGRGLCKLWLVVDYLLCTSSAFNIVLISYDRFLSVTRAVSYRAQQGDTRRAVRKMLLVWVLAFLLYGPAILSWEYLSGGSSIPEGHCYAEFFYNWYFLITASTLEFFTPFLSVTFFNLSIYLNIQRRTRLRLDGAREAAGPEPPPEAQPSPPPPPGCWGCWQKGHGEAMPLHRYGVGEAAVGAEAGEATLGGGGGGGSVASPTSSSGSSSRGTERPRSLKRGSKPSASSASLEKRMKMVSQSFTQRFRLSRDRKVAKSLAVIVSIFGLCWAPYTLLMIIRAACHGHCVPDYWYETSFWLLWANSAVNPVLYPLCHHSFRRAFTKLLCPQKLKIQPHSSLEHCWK
Nature of the experiment: cAMP quantification assay for human H3 receptor testing. It is filed as cell-based. The conditions noted are these: CHO-K1 cells expressing human H3 receptors; inhibition of agonist-induced decrease of cAMP; 100 nM histamine, 10 μM forskolin; read-out: Potency range (IC50 values). The procedure:
CHO—K1 cell line expressing human H3 receptors were purchased from Euroscreen (Gosselies, Belgium, Cat. no.: ES-392-C)
Human H3 receptor-expressing cell-lines were grown in Ham's F12 [Sigma, Cat. no. N6658], supplemented with 10% FBS [Sigma, Cat. no. F9665], 400 μg/ml G418 [Sigma, Cat. no. N1876] and 250 μg/ml Zeocin [Invitrogen, Cat. no. 46-0509]) according to the protocol provided by Euroscreen.
The assay measures the ability of test compounds to inhibit Histamine receptor agonist-induced decrease of intracellular free cAMP (receptor is Gi coupled).
Specifically, a cAMP quantification assay system from DiscoveRx (cAMP XS+; Cat. no. 90-0075) was used.
For the cAMP assay, confluent cells were detached from the culture vessels with 1× trypsin-EDTA solution (Sigma), and seeded into 384-well Costar plates (white, clear bottom, Cat. no. 3707) at a density of 10,000 cells per well. Cells were seeded in a volume of 50 μl in medium without antibiotics and incubated overnight in a humidified atmosphere with 5% CO2 at 37° C. The cAMP assay was performed according to the protocol provided by DiscoveRx.
The cell culture medium was removed and the cells washed once with PBS (50 μl per well). The plates were emptied by inversion and 7.5 μl/well of compound in PBS (containing 1 mM IBMX and 0.03% BSA) were added and incubated for 30 min at 37° C.
Subsequent 7.5 μl/well specific agonist solution was added and the plates for another 30 min incubated at 37° C.
hH3:100 nM histamine, 10 μM forskolin in PBS (containing 1 mM IBMX and 0.03% BSA)
After the incubation with the agonist, 5 μl/well cAMP XS antibody solution was added followed by 20 μl/well Gal/EII/Lysis (1:5:19)+ED (1:1). The plates were incubated for one hour at room temperature and afterwards 20 μl/well EA reagent was added. The luminescence was developed for approximately three hours at room temperature and the plates were read out using a ‘BMG Novostar’ plate reader.
Test compounds were assayed at 8 concentrations in triplicate. Serial 10-fold dilutions in 100% DMSO were made at a 100-times higher concentration than the final concentration and then diluted with a 2 step protocol in assay buffer to reach the required assay concentrations and 1% DMSO. […]
In the case of `NC(=O)c1cc(OC2CN(C(=O)N3CCCN(C4CCC4)CC3)C2)ccn1` [Example 72, 4-({1-[(4-cyclobutyl-1,4-diazepan-1-yl)carbonyl]azetidin-3-yl}oxy)pyridine-2-carboxamide], the IC50 is less than 100 nM.
As for `CNC(=O)c1cccc(OC2CN(C(=O)N3CCCN(C4CCC4)CC3)C2)c1` [Example 75, 3-({1-[(4-cyclobutyl-1,4-diazepan-1-yl)carbonyl]azetidin-3-yl}oxy)-N-methylbenzamide], the IC50 was less than 100 nM.
The result for `O=C(N1CCCN(C2CCC2)CC1)N1CC(Oc2ncccc2Cl)C1` [Example 76] reads less than 100 nM; that for `O=C(N1CCCN(C2CCC2)CC1)N1CC(Oc2ccc(Cl)cn2)C1` [Example 77, 1-({3-[(5-chloropyridin-2-yl)oxy]azetidin-1-yl}carbonyl)-4-cyclobutyl-1,4-diazepane], less than 100 nM; that for `O=C(N1CCCN(C2CCC2)CC1)N1CC(Oc2cncc(Cl)c2)C1` [Example 80, 1-({3-[(5-chloropyridin-3-yl)oxy]azetidin-1-yl}carbonyl)-4-cyclobutyl-1,4-diazepane], less than 100 nM.
As for `O=C(N1CCCN(C2CCC2)CC1)N1CC(Oc2ccncc2)C1` [Example 81, 1-cyclobutyl-4-{[3-(pyridin-4-yloxy)azetidin-1-yl]carbonyl}-1,4-diazepane], the IC50 is less than 100 nM.
As to `COc1cncc(OC2CN(C(=O)N3CCCN(C4CCC4)CC3)C2)c1` [Example 82, 1-cyclobutyl-4-({3-[(5-methoxypyridin-3-yl)oxy]azetidin-1-yl}carbonyl)-1,4-diazepane], the IC50 is less than 100 nM.
Regarding `O=C(C1CC1)N1CCc2nc(OC3CN(C(=O)N4CCCN(C5CCC5)CC4)C3)ccc2C1` [Example 83, 2-({1-[(4-cyclobutyl-1,4-diazepan-1-yl)carbonyl]azetidin-3-yl}oxy)-6-(cyclopropylcarbonyl)-5,6,7,8-tetrahydro-1,6-naphthyridine], the 50% inhibitory concentration (IC50) is less than 100 nM.
In the case of `O=C(CC1CC1)N1CCc2nc(OC3CN(C(=O)N4CCCN(C5CCC5)CC4)C3)ccc2C1` [Example 84, 2-({1-[(4-cyclobutyl-1,4-diazepan-1-yl)carbonyl]azetidin-3-yl}oxy)-6-(cyclopropylacetyl)-5,6,7,8-tetrahydro-1,6-naphthyridine], the IC50 is less than 100 nM.
The result for `CNC(=O)c1cnccc1OC1CN(C(=O)N2CCCN(C3CCC3)CC2)C1` [Example 85, 4-({1-[(4-cyclobutyl-1,4-diazepan-1-yl)carbonyl]azetidin-3-yl}oxy)-N-methylpyridine-3-carboxamide] reads less than 100 nM; that for `COc1ccc(OC2CN(C(=O)N3CCCN(C4CCC4)CC3)C2)cc1` [Example 86, 1-cyclobutyl-4-{[3-(4-methoxyphenoxy)azetidin-1-yl]carbonyl}-1,4-diazepane], less than 100 nM.
To `O=C(N1CCCN(C2CCC2)CC1)N1CC(Oc2ccc(-n3cccn3)cc2)C1` [Example 87, 1-cyclobutyl-4-({3-[4-(1H-pyrazol-1-yl)phenoxy]azetidin-1-yl}carbonyl)-1,4-diazepane] belongs less than 100 nM; to `O=C(N1CCCN(C2CCC2)CC1)N1CC(Oc2ccc(OC(F)(F)F)cc2)C1` [Example 88, 1-cyclobutyl-4-({3-[4-(trifluoromethoxy)phenoxy]azetidin-1-yl}carbonyl)-1,4-diazepane], less than 100 nM.
For the molecule `O=C(N1CCCN(C2CCC2)CC1)N1CC(Oc2ccc(OC(F)F)cc2)C1` [Example 89, 1-cyclobutyl-4-({3-[4-(difluoromethoxy)phenoxy]azetidin-1-yl}carbonyl)-1,4-diazepane], the IC50 is less than 100 nM.
As for `O=C(N1CCCN(C2CCC2)CC1)N1CC(Oc2ccc(Cl)cc2F)C1` [Example 90, 1-{[3-(4-chloro-2-fluorophenoxy)azetidin-1-yl]carbonyl}-4-cyclobutyl-1,4-diazepane], the half-inhibitory concentration (IC50) was less than 100 nM.
Regarding `COc1cccc(OC2CN(C(=O)N3CCCN(C4CCC4)CC3)C2)c1` [Example 91, 1-cyclobutyl-4-{[3-(3-methoxyphenoxy)azetidin-1-yl]carbonyl}-1,4-diazepane], the IC50 was less than 100 nM.
To `COc1ccccc1OC1CN(C(=O)N2CCCN(C3CCC3)CC2)C1` [Example 92, 1-cyclobutyl-4-{[3-(2-methoxyphenoxy)azetidin-1-yl]carbonyl}-1,4-diazepane] belongs less than 100 nM.
To `Cc1ccc2cc(OC3CN(C(=O)N4CCCN(C5CCC5)CC4)C3)ccc2n1` [Example 93, 6-({1-[(4-cyclobutyl-1,4-diazepan-1-yl)carbonyl]azetidin-3-yl}oxy)-2-methylquinoline] belongs less than 100 nM; to `O=C(N1CCCN(C2CCC2)CC1)N1CC(Oc2ccc(C(F)(F)F)nc2)C1` [Example 94, 1-cyclobutyl-4-[(3-{[6-(trifluoromethyl)pyridin-3-yl]oxy}azetidin-1-yl)carbonyl]-1,4-diazepane], less than 100 nM; to `O=C(N1CCCN(C2CCC2)CC1)N1CC(OCc2ccc(F)cc2)C1` [Example 95, 1-cyclobutyl-4-({3-[(4-fluorobenzyl)oxy]azetidin-1-yl}carbonyl)-1,4-diazepane], less than 100 nM.
Turning to `COC1CN(C(=O)N2CCCN(C3CCC3)CC2)C1` [Example 96, 1-cyclobutyl-4-[(3-methoxyazetidin-1-yl)carbonyl]-1,4-diazepane], the IC50 was less than 100 nM.
In the case of `O=C(N1CCCN(C2CCC2)CC1)N1CC(OCc2ccc(Cl)cc2)C1` [Example 97, 1-({3-[(4-chlorobenzyl)oxy]azetidin-1-yl}carbonyl)-4-cyclobutyl-1,4-diazepane], the IC50 was less than 100 nM.
For the molecule `N#Cc1ccc(COC2CN(C(=O)N3CCCN(C4CCC4)CC3)C2)cc1` [Example 98, 4-[({1-[(4-cyclobutyl-1,4-diazepan-1-yl)carbonyl]azetidin-3-yl}oxy)methyl]benzonitrile], the IC50 is less than 100 nM.
On to `C#CCOC1CN(C(=O)N2CCCN(C3CCC3)CC2)C1` [Example 99, 1-cyclobutyl-4-{[3-(prop-2-yn-1-yloxy)azetidin-1-yl]carbonyl}-1,4-diazepane], for which the IC50 was less than 100 nM.
The result for `O=C1CC(C(=O)N2CCCN(C3CCC3)CC2)C1` [Example 100, 3-[(4-cyclobutyl-1,4-diazepan-1-yl)carbonyl]cyclobutanone] reads less than 100 nM; that for `O=C([C@H]1C[C@@H](O)C1)N1CCCN(C2CCC2)CC1` [Example 101, cis-3-[(4-cyclobutyl-1,4-diazepan-1-yl)carbonyl]cyclobutanol], 100 to 500 nM.
The result for `CNC(=O)c1ccc(O[C@H]2C[C@@H](C(=O)N3CCCN(C4CCC4)CC3)C2)nc1` [Example 102, 6-({cis-3-[(4-cyclobutyl-1,4-diazepan-1-yl)carbonyl]cyclobutyl}oxy)-N-methylpyridine-3-carboxamide] reads less than 100 nM; that for `N#Cc1ccc(O[C@H]2C[C@@H](C(=O)N3CCCN(C4CCC4)CC3)C2)cc1` [Example 103, 4-({cis-3-[(4-cyclobutyl-1,4-diazepan-1-yl)carbonyl]cyclobutyl}oxy)benzonitrile], less than 100 nM; that for `O=C([C@H]1C[C@@H](Oc2ccc(C(F)(F)F)cn2)C1)N1CCCN(C2CCC2)CC1` [Example 104, 1-cyclobutyl-4-[(cis-3-{[5-(trifluoromethyl)pyridin-2-yl]oxy}cyclobutyl)carbonyl]-1,4-diazepane], less than 100 nM.
The result for `O=C([C@H]1C[C@H](O)C1)N1CCCN(C2CCC2)CC1` [Example 105, trans-3-[(4-cyclobutyl-1,4-diazepan-1-yl)carbonyl]cyclobutanol] reads less than 100 nM; that for `N#Cc1ccc(O[C@H]2C[C@H](C(=O)N3CCCN(C4CCC4)CC3)C2)cc1` [Example 106, 4-({trans-3-[(4-cyclobutyl-1,4-diazepan-1-yl)carbonyl]cyclobutyl}oxy)benzonitrile], less than 100 nM; that for `O=C([C@H]1C[C@H](Oc2ccc(C(F)(F)F)cn2)C1)N1CCCN(C2CCC2)CC1` [Example 107, 1-cyclobutyl-4-[(trans-3-{[5-(trifluoromethyl)pyridin-2-yl]oxy}cyclobutyl)carbonyl]-1,4-diazepane], less than 100 nM.
For the molecule `O=C1CN(C(=O)N2CCCN(C3CCC3)CC2)C1` [Example 108, 1-[(4-cyclobutyl-1,4-diazepan-1-yl)carbonyl]azetidin-3-one], the IC50 was less than 100 nM.
Regarding `NC1CN(C(=O)N2CCCN(C3CCC3)CC2)C1` [Example 109, 1-[(4-cyclobutyl-1,4-diazepan-1-yl)carbonyl]azetidin-3-amine], the IC50 is less than 100 nM.

What is called IC50 is the point on the concentration scale where inhibition reaches its midpoint.
